Measurements taken from patent US12638394B2, “Skin sensitization measuring reagent, method for measuring skin sensitization, and compound” (FUJIFILM Corporation, priority 2019, dated 2026).

Tests used:
[1] = class given for the evaluation substance; cited from earlier work
[2] = Reactivity of nucleophilic reagent, secondary evaluation with seven substances; details: all six substances except 5-methyl-2,3-hexanedione
Source text: (§1) One solvent with which a 1 mmol/L test substance solution can be prepared is selected according to the following order of priority: water, acetonitrile, acetone, and a 5% solution of DMSO in acetonitrile. If water, acetonitrile, or acetone is selected, a 20 mmol/L test substance solution is first prepared. A suitable amount of the test substance is weighed and completely dissolved by adding the solvent to prepare a 20 mmol/L solution. A portion of the 20 mmol/L solution is then collected and diluted 20-fold with the same solvent to prepare a 1 mmol/L test substance solution. If a 5% by mass solution of DMSO in acetonitrile is selected, a 20 mmol/L test substance solution is prepared in the same manner as above. A portion of the solution is then collected and diluted 20-fold with acetonitrile to prepare a 1 mmol/L test substance solution.
The plate is firmly sealed with a plate seal (resistant embossed seal (TORAST™ 96-well Seal E Type (TORAST is a registered trademark)), Shimadzu GLC Ltd.) and is shaken on a plate shaker (Titramax 100, Heidolph Instruments). After being spun down in a centrifuge, the reaction solutions are incubated at 25° C. in a light-shielded state for 24 hours. […]
(§2) The depletion of the nucleophilic reagent is calculated from the mean peak area of the nucleophilic reagent by the following equation: […]

[3] = Depletion of nucleophilic reagent by evaluation substance (HPLC); details: 1 mmol/L test substance solution, 25° C., 24 hours
Source text: as §1
(§3) The plate is firmly sealed with a plate seal (resistant embossed seal (TORAST™ 96-well Seal E Type (TORAST is a registered trademark)), Shimadzu GLC Ltd.) and is shaken on a plate shaker (Titramax 100, Heidolph Instruments). After being spun down in a centrifuge, the reaction solutions are incubated at 25° C. in a light-shielded state for 24 hours.
(§4) After incubation for 24 hours, the plate seal is removed, and 50 μL of the reaction stop solution is added to each sample to stop the reaction.
as §2
(§5) Ten substances shown in the following table were used for reactivity evaluation. For primary evaluation, the upper three substances were used. […] For secondary evaluation, the lower seven substances were used. The substances selected for the secondary evaluation were substances that are difficult to distinguish between sensitizers and non-sensitizers by analysis using NAC and NAL. As above, the substances selected for the secondary evaluation were five substances that mainly react with cysteine and two substances that mainly react with lysine.
Using the three substances shown in the following table, 1 mmol/L solutions were prepared and used for testing.
A solution prepared by dissolving NAC and NAL in a phosphate buffer solution (pH 8.0) prepared in accordance with “(1-2) 100 mmol/L Phosphate Buffer Solution (pH 8.0)” of “(1) Preparation of Various Solutions” above such that the concentration of each nucleophilic reagent was 13.333 μmol/L was used as a nucleophilic reagent stock solution.
Nucleophilic reagent stock solution: NAC and NAL, 75 μL each
(§6) Test substance solution: 50 μL
The procedures described in “(4-2) Reaction” and “(4-3) Reaction Stop” of “(4) Reaction” above were performed.
In addition, the nucleophilic reagent depletion (%) was determined by the method described in “(6) Data Analysis” above.

[4] = Reactivity of nucleophilic reagent with evaluation substance (depletion, HPLC), primary evaluation; details: 1 mmol/L test substance solution, 25° C., 24 hours
Description: 1) A nucleophilic reagent is dissolved in DMSO (manufactured by FUJIFILM Wako Pure Chemical Corporation) depending on its molecular weight to prepare a 2 mmol/L nucleophilic reagent solution.
2) To a 500 mL container, 149.5 mL of the buffer solution is added using a 50 mL measuring pipette, and 0.5 mL of the 2 mmol/L nucleophilic reagent solution is added and mixed by inversion so that the solution is diluted 300-fold (6.667 μmol/L). This solution is stored in a freezer at −70° C. or lower.
as §1
Test substance solutions are prepared on a 96-well plate (U96 PP-0.5 ML NATURAL, Thermo (NUNC)), mainly using a 12-channel pipette, and the reagent is added in the following amount:
Nucleophilic reagent: 150 μL
as §6, §3, §4
The HPLC measurement conditions for the nucleophilic reagents are given below. As the elution conditions, condition 1, 2 or 3 was selected depending on the nucleophilic reagent.
as §2, §5

Structure (SMILES) | Skin sensitization [1] | reactivity (nucleophilic reagent depletion) with 2-methyl-2H-isothiazol-3-one [4] | also measured
Cn1sccc1=O [2-Methyl-2H-isothiazol-3-one] | Moderate | – | –
CC(=O)N[C@@H](CCCCN)C(=O)N[C@@H](CS)C(=O)NCc1cccc2ccccc12 [Compound 2] | – | – | reactivity with six secondary evaluation substances compared with NAC or NAL [2]: higher than that of NAC or NAL alone and the mean depletion; depletion for 5-methyl-2,3-hexanedione [3]: 16.7%; depletion for diphenylcyclopropenone [3]: 34.9%; depletion for nonanoyl chloride [3]: 65.2%
CC(=O)N[C@@H](CS)C(=O)N[C@@H](CCCCN)C(=O)N[C@@H](CC(=O)O)C(=O)NCc1cccc2ccccc12 [Compound 4] | – | about 100% | reactivity with six secondary evaluation substances compared with NAC or NAL [2]: higher than that of NAC or NAL alone and the mean depletion; depletion for 5-methyl-2,3-hexanedione [3]: 13.8%; depletion for diphenylcyclopropenone [3]: 100%; depletion for nonanoyl chloride [3]: 67.6%
NCCCC[C@H](NC(=O)[C@H](CS)NC(=O)CO)C(=O)N[C@@H](CC(=O)O)C(=O)NCc1cccc2ccccc12 [Compound 13] | – | about 100% | –
NCCCCC(NC(=O)[C@H](CS)NC(=O)[C@H](Cc1ccccn1)NC(=O)Cc1ccc2ccccc2c1)C(N)=O (some centres unmarked) [Compound 16] | – | about 100% | –
NCCCCC(NC(=O)[C@H](CS)NC(=O)[C@H](Cc1c[nH]cn1)NC(=O)Cc1ccc2ccccc2c1)C(N)=O (some centres unmarked) [Compound 19] | – | about 100% | –
NCCCCC(NC(=O)[C@H](CS)NC(=O)[C@H](Cc1ccccn1)NC(=O)Cc1ccc2ccccc2c1)C(=O)O (some centres unmarked) [Compound 21] | – | about 100% | –
NCCCCC(NC(=O)[C@H](CS)NC(=O)C(Cc1ccncc1)NC(=O)Cc1ccc2ccccc2c1)C(=O)O (some centres unmarked) [Compound 22] | – | about 100% | –
NCCCCC(NC(=O)[C@H](CS)NC(=O)C(Cc1c[nH]cn1)NC(=O)Cc1ccc2ccccc2c1)C(=O)O (some centres unmarked) [Compound 24] | – | about 100% | –
NCCCC[C@H](NC(=O)C(Cc1ccncc1)NC(=O)Cc1ccc2ccccc2c1)C(=O)NC(CS)C(=O)O (some centres unmarked) [Compound 27] | – | about 100% | –
NCCCC[C@H](NC(=O)C(Cc1c[nH]cn1)NC(=O)Cc1ccc2ccccc2c1)C(=O)NC(CS)C(=O)O (some centres unmarked) [Compound 29] | – | about 100% | –
NCCCCC(NC(=O)Cc1ccc2ccccc2c1)C(=O)N[C@@H](CS)C(=O)O (some centres unmarked) [Compound 30] | – | about 100% | –
CC(C=O)Cc1ccc(C(C)C)cc1 (centres unmarked) [Cyclamen aldehyde] | Strong sensitizer | – | –
O=c1c(-c2ccccc2)c1-c1ccccc1 [Diphenylcyclopropenone] | Strong sensitizer | – | –
C=C(C)C(=O)OCCOC(=O)C(=C)C [Ethylene glycol dimethacrylate] | Strong sensitizer | – | –
CC(CC=O)CCCC(C)(C)O (centres unmarked) [Hydroxycitronellal] | Strong sensitizer | – | –
CCCCCCCCC(=O)Cl [Nonanoyl chloride] | Moderate | – | –
O=C(O)c1ccccc1O [Salicylic acid] | Non-sensitizer | – | –
O=C(O)c1ccc2c(c1)C(=O)OC2=O [Trimellitic anhydride] | Strong sensitizer | – | –
